Experimental data as given in ChEMBL document CHEMBL2074185, “Differential effects of the breast cancer resistance protein on the cellular accumulation and cytotoxicity of 9-aminocamptothecin and 9-nitrocamptothecin” (Cancer Res, 2003).

Target: T1, Broad substrate specificity ATP-binding cassette transporter ABCG2 (Homo sapiens, UniProt Q9UNQ0)
T1 sequence (Q9UNQ0 whole entry): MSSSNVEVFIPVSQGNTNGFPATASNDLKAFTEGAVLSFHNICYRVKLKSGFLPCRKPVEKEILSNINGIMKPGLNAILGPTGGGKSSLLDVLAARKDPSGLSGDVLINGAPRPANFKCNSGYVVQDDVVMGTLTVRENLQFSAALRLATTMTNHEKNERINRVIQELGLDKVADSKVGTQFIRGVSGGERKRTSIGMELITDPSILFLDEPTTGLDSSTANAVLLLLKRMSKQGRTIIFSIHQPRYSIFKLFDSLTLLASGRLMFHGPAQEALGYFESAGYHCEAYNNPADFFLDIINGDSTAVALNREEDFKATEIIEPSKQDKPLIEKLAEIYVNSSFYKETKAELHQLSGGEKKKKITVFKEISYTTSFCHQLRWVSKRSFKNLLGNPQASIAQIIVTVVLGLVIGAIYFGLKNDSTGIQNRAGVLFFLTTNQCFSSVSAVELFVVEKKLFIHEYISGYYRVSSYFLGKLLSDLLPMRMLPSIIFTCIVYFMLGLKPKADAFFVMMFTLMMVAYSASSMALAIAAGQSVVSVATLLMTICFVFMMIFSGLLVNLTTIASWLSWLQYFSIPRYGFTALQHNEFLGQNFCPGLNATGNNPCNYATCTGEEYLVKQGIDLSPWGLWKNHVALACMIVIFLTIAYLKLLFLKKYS
Assay: TP_TRANSPORTER: uptake in BCRP-expressing HEK293 cells
Assay type: functional, cell-based

CC[C@@]1(O)C(=O)OCc2c1cc1n(c2=O)Cc2cc3c(N)cccc3nc2-1 [9-AMINOCAMPTOTHECIN]
Activity: substrate []
